Earlier results as cited in patent publication EP3958980B1, “TARGETED NOVEL TRIAZOLOTHIADIAZINE DERIVATIVES FOR THE TREATMENT OF LUNG CANCER” (Anadolu Universitesi, priority 2020, dated 2021).

Legend:
[1] = tested on: leukemia (MOLT-4) cell line; conditions: cited from earlier work
[2] = tested on: kidney cancer (OU-31) cell line; parameters: concentration or dose not given beside the values; conditions: cited from earlier work
[3] = tested on: 60 cell lines formed of leukemia, NSCLC, melanoma, prostate, ovarian and breast cancers; conditions: against all cancer cells; cited from earlier work
[4] = tested on: kidney fibroblast (BHK-21) and lung carcinoma (H-157) cell lines; conditions: highest cytotoxic activity; cell line not stated; cited from earlier work
lung cancer (H157) cells = conditions: cited from earlier work
[5] = tested on: kidney fibroblast (BHK-21) cells; conditions: cited from earlier work

O=C(CSc1nnc2n1N=C(c1ccc(Cl)cc1)CS2)c1ccc(F)cc1 [2-((6-(4-Chlorophenyl)-7H-[1,2,4]triazolo[3,4-b][1,3,4]thiadiazine-3-yl)thio-1-(4-fluorophenyl)ethanone]
growth [1]: 49.82%
growth [2]: 48.14%

Fc1cc(-c2nnc3n2N=C(c2ccc(Cl)cc2)CS3)c(Cl)cc1Cl [3-(2,4-Dichloro-5-fluorophenyl)-6-(4-chlorophenyl)-1,2,4-triazolo[3,4-b]-1,3,4-thiadiazine]
GI50 [3]: 1.06 to 25.4 µM

O=c1oc2ccccc2cc1-c1nnc2n1N=C(c1ccc(-c3ccccc3)cc1)CS2 [3-(6-(Biphenyl-4-yl)-7H-[1,2,4]triazolo[3,4-b][1,3,4]-thiadiazine-3-yl)-2H-chromene-2-one]
IC50 [4]: 1.01 ± 0.12 µM

CC[C@]1(O)C[C@H]2CN(CCc3c([nH]c4ccccc34)[C@@](C(=O)OC)(c3cc4c(cc3OC)N(C=O)[C@H]3[C@@](O)(C(=O)OC)[C@H](OC(C)=O)[C@]5(CC)C=CCN6CC[C@]43[C@@H]65)C2)C1 [vincristine]
IC50 (lung cancer (H157) cells): 1.03 ± 0.04 µM
inhibition [5]: 74.5%
